In brackets after ≈: the same amount, converted by molar mass. Several values for one entry are separate records, joined by “and”; a condition that tells them apart may be missing. Identical values can stand only once.
Tests used:
[1] = Rotating disk electrode linear sweep voltammetry (Levich and Tafel analysis); format: physicochemical
From the text: Further, the log (i0) can also be represented as FACOk0, where k0 is the electron transfer rate constant.

[2] = Three-electrode half-cell cyclic voltammetry
physchem = experiment: physchem
From the text: FIG. 1A illustrates the natural source of the indigo dye. The most natural product from which indigo is obtained includes indican (genus indigofera plants) and isatan (woad plants or isatis tinctoria) in tropical and moderate climate zones, respectively.^[19] Irrespective of their source, the chemistry of the dye extraction involves soaking the leaves of the plants in water to facilitate the fermentation process, during which the indican readily undergoes enzymatic hydrolysis and releases indoxyl that converts to indigo by oxidation upon exposure to air. […] On the contrary, a high concentration of reactants in solution is the key to minimize the storage tank size while obtaining high specific volumetric energy density. Therefore, the design of an appropriate electrolyte for AORFB starts from identifying redox-active materials followed by optimization of the structure to achieve the maximum solubility to maximize the energy density. […] In IC-H, the substituted protons are attached to the strongly electronegative oxygen atoms and capable of forming strong hydrogen bondings. Hydrogen bondings are usually stronger than the Van Der Wall forces and dipole interactions.

| electron transfer (reaction) rate constant ([1]; 1 mM in 0.1 M HClO4, fitted Tafel plot) [cm/s] | electron transfer rate constant k0 ([1]; LSV data at 2700 rpm, Tafel plot) [cm/s] | chemical stability on CV cycling ([2]; 10,000 cycles at 40 mV s^−1) | redox peak separation ([2]; scan rates 5 mV s^−1 to 200 mV s^−1) [mV] | aqueous solubility (physchem) [mM] | improvement in solubility (physchem) [folds] | SMILES | diffusion coefficient ([1]; 1 mM in 0.1 M HClO4, slope of Levich plot) | redox potential (redox peaks) ([2]; acidic medium (0.1 M HClO4 where stated)) |
| --- | --- | --- | --- | --- | --- | --- | --- | --- |
| 0.000282 | 0.000282 | negligible decay | 40 | 760 (≈ 321 mg/mL) | 22 | O=C1/C(=C2\Nc3ccc(S(=O)(=O)O)cc3C2=O)Nc2ccc(S(=O)(=O)O)cc21 [IC-H, 5,5′-indigodisulfonic acid] | 2.232×10^−5 cm^2 s^−1 and 2.23×10^−5 cm^2 s^−1 |  |
|  |  |  |  |  |  | CC1(C)CCCC(C)(C)N1[O] [TEMPO, 2,2,6,6-tetramethylpiperidine-1-oxyl, reference compound] |  | around 0.75 V vs. Ag/AgCl |

— patent US20220238900A1, “All Natural Redox Flow Battery Utilizing Indigo Carmine And Derivatives Thereof” (Northeastern University, priority 2019, published 2022)
